According to patent publication US7267949B2, “Composition comprising methylphenidate and another drug” (Celltech Pharma Europe Limited, priority 1995, dated 2007):

How the values were obtained:
[1] = biological target: CYP2C9 (P450 Isozyme 2C9) (Homo sapiens, UniProt P11712); test: Tolbutamide hydroxylase activity in human microsome preparations; settings: microsomes
[2] = biological target: CYP2C19 (P450 Isozyme 2C19) (Homo sapiens, UniProt P33261); test: Mephenytoin hydroxylase activity in human microsome preparations; settings: human, human microsome preparations, probe mephenytoin
CYP2C19 (P450 Isozyme 2C19), sequence (P33261 whole entry): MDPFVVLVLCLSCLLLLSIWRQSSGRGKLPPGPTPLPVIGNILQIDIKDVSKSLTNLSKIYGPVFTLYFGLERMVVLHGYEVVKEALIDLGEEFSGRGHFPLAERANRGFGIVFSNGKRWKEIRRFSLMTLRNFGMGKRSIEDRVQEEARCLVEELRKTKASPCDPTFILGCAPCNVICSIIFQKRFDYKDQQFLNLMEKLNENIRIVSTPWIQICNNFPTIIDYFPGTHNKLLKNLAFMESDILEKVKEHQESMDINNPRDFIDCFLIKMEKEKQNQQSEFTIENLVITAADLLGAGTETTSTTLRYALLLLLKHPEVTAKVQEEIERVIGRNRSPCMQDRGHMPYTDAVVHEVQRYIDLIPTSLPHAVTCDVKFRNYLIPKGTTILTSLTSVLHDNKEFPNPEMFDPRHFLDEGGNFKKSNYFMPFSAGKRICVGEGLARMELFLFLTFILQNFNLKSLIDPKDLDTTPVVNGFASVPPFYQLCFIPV

[3] = biological target: CYP2D6 (P450 Isozyme 2D6) (Homo sapiens, UniProt P10635); test: Bufuralol hydroxylase activity in human microsome preparations; settings: human
CYP2D6 (P450 Isozyme 2D6), sequence (P10635 whole entry): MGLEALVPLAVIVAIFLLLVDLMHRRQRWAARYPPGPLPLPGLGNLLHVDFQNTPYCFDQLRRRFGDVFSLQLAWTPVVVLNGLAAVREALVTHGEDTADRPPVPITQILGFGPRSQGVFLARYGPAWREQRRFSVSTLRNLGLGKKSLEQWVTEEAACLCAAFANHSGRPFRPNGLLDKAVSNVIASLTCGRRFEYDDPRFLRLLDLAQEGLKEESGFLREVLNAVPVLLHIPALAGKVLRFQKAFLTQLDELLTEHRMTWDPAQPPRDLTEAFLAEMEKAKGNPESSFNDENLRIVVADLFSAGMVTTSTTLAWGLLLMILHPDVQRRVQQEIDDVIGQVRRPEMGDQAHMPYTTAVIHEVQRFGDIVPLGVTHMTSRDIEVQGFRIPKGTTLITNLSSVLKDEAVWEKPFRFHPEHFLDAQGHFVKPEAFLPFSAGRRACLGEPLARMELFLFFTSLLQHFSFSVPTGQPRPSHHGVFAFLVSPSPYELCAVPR

CYP2B (P450 Isozyme 2B) = test: Lauric acid 11-hydroxylase activity in human microsome preparations; settings: human, human microsome preparations, probe lauric acid
P450 Isozyme 2C19 = P450 Isozyme 2C19 (Homo sapiens, UniProt P33261); test: Mephenytoin hydroxylase activity in human microsome preparations; settings: test substance at 100 μM, human microsomes
P450 Isozyme 2C19, sequence (P33261 whole entry): as the sequence (P33261 whole entry) above

P450 Isozyme 2D6 = P450 Isozyme 2D6 (Homo sapiens, UniProt P10635); test: Bufuralol hydroxylase activity in human microsome preparations; settings: test substance at 100 μM, human microsomes
P450 Isozyme 2D6, sequence (P10635 whole entry): as the sequence (P10635 whole entry) above

P450 Isozyme 2B = test: Lauric acid 11-hydroxylase activity in human microsome preparations; settings: test substance at 100 μM, human microsomes
rats = settings: 10 mg/kg, given 10 minutes following methylphenidate, within 15 to 25 minutes; cited from earlier work
mouse liver = test: Toxicity in the mouse liver; assay type: in vivo; settings: compared with racemic methylphenidate
Text: The invention is thus of particular utility in that proportion of the population in which the relevant enzymes have reduced efficiency, or that are receiving the cross-reacting drugs, e.g SSRIs, in therapy of, say, anxiety or depression.

CYP2C9 (P450 Isozyme 2C9), sequence (P11712 whole entry): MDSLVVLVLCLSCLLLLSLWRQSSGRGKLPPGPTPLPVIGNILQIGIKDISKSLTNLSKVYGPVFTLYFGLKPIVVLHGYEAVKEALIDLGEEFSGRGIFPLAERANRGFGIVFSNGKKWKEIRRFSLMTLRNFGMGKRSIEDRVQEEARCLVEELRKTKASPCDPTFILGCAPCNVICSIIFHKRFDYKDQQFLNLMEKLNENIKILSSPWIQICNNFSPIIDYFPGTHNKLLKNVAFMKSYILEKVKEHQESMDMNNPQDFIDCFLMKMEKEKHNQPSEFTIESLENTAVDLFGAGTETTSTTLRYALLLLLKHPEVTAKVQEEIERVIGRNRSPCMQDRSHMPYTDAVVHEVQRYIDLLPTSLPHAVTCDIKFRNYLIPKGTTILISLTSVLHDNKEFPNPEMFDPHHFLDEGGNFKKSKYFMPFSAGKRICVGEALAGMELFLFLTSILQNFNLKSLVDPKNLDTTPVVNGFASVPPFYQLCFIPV

## COC(=O)C(c1ccccc1)C1CCCCN1 (racemic) [Racemic Methylphenidate, methylphenidate]
[1]
  inhibition at 100 µM: 19%
[2]
  inhibition at 100 µM: 44%
[3]; microsomes
  inhibition at 100 µM: 65%
CYP2B (P450 Isozyme 2B)
  inhibition at 100 µM: < 15%

## COC(=O)[C@@H](c1ccccc1)[C@@H]1CCCCN1 [ltmp]
P450 Isozyme 2C19
  % Inhibition of Enzyme Activity (Mephenytoin hydroxylase, 2C19): 33%
P450 Isozyme 2D6
  % Inhibition of Enzyme Activity (Bufuralol hydroxylase, 2D6): 41%
P450 Isozyme 2B
  % Inhibition of Enzyme Activity (Lauric acid 11-hydroxylase, 2B): <20%

## NCC(CC(=O)O)c1ccc(Cl)cc1 (stereo not shown) [Baclofen]
rats
  block of methylphenidate-enhanced activity and stereotypics: uniform block

## C=C[C@H]1C[N@@]2CC[C@H]1C[C@@H]2[C@@H](O)c1ccnc2ccc(OC)cc12 [Quinidine]
[3]; human microsome preparations, probe bufuralol
  inhibition at 10 µM: > 90%

## COC(=O)[C@H](c1ccccc1)[C@H]1CCCCN1 [dtmp, d-threo-methylphenidate]
P450 Isozyme 2C19
  % Inhibition of Enzyme Activity (Mephenytoin hydroxylase, 2C19): 31%
P450 Isozyme 2D6
  % Inhibition of Enzyme Activity (Bufuralol hydroxylase, 2D6): 64%
Mouse liver
  toxicity in the mouse liver: less toxicity in the mouse liver than racemic methylphenidate
P450 Isozyme 2B
  % Inhibition of Enzyme Activity (Lauric acid 11-hydroxylase, 2B): <20%
